This note sets out measurements from patent publication US4610983A, “N-acyl acidic amino acid diamide derivative, a salt thereof, and an anti-ulcer agent containing the same” (Toyama Chemical Co., Ltd., priority 1984, dated 1986).

Where only a bound is given, the exact number is not on record here.

For one data set, the system named is Wistar strain rats. The data set can be described thus: Anti-ulcer activity, Indomethacin-induced ulcers, oral (ED50). Type of data set: in vivo, Wistar strain rats (male). Particulars: Rattus norvegicus, 1 h before Indomethacin 25 mg/kg p.o., ulcer lengths after 5 h, dose giving 50% of control. From the text:
On the other hand, Indomethacin alone was orally administered to a control group at the same dose.
What is called ED50 is the dose at which the effect has come halfway, by size or by number of responders. As to `CCCN(CCC)C(=O)C(CCC(=O)NC)NC(=O)/C=C/c1ccco1` (racemic) [Test Compound 1, DL-2-[β-(2-furyl)acrylamido]-N^5-methyl-N^1,N^1-di(n-propyl)pentane-1,5-diamide], the ED50 came to 6.6 mg/kg.
On the same count and under the same terms, in the case of `CCCN(CCC)C(=O)C(CCC(=O)N(C)C)NC(=O)/C=C/c1ccco1` (racemic) [Test Compound 2, DL-2-[β-(2-furyl)acrylamido]-N^5,N^5-dimethyl-N^1,N^1-di(n-propyl)-pentane-1,5-diamide] it was 9 mg/kg.
In the case of `CN(C)C(=O)CCC(NC(=O)/C=C/c1ccco1)C(=O)N(C)C` (racemic) [Test Compound 3, DL-2-[β-(2-furyl)acrylamido]-N^1,N^1,N^5,N^5-tetramethyl-pentane-1,5-diamide], the ED50 came to 10.8 mg/kg.
Still for that read-out and setting: in the case of `CCCN(CCC)C(=O)C(CCC(=O)O)NC(=O)c1ccccc1` (stereo not shown) [Proglumide, reference compound] it was 800 mg/kg.

System in the next data set: not listed separately
Put plainly: Acute toxicity, intraperitoneal. Particulars: mouse, in vivo, ip. The protocol:
Each of the compounds of the Test Compound Nos. 2, 3, 4, 5, 6, 17, 23, 30 and 31 was intraperitoneally administered to ddY strain mice (.male., body wt. 23±2 g, 10 mice per group), and the LD50 values were measured to find that all of them were 600 mg/kg or more.
The term LD50 denotes the dose expected to kill half of the subjects tested. On to `CCCN(CCC)C(=O)C(CCC(=O)N(C)C)NC(=O)/C=C/c1cc2ccccc2o1` (racemic) [Test Compound 5, DL-2-[β-(2-benzofuryl)acrylamido]-N^5,N^5-dimethyl-N^1,N^1-di(n-propyl)-pentane-1,5-diamide], for which the LD50 is at least 600 mg/kg.

Staying with this data set, now noted: mouse, in vivo, ip; intraperitoneal, ddY male mice.
`CCCN(CCC)C(=O)C(CCC(=O)N(C)C)NC(=O)/C=C/c1ccco1` (racemic) [Test Compound 2, DL-2-[β-(2-furyl)acrylamido]-N^5,N^5-dimethyl-N^1,N^1-di(n-propyl)-pentane-1,5-diamide]: the LD50 is at least 600 mg/kg.
In turn, `CN(C)C(=O)CCC(NC(=O)/C=C/c1ccco1)C(=O)N(C)C` (racemic) [Test Compound 3, DL-2-[β-(2-furyl)acrylamido]-N^1,N^1,N^5,N^5-tetramethyl-pentane-1,5-diamide] returned an LD50 of at least 600 mg/kg.
On the same count and under the same terms, in the case of `CN(C)C(=O)CCC(NC(=O)/C=C/c1cc2ccccc2o1)C(=O)N(C)C` (racemic) [Test Compound 4] it was at least 600 mg/kg; in that of `CN(C)C(=O)CCC(NC(=O)/C=C/c1cc2ccccc2o1)C(=O)N1CCCCC1` (racemic) [Test Compound 6], at least 600 mg/kg; in that of `CCCCNC(=O)CCC(NC(=O)/C=C/c1ccco1)C(=O)NCCCC` (stereo not shown) [compound 17], at least 600 mg/kg.
Same read-out and setting: in the case of `CC(C)NC(=O)CCC(NC(=O)/C=C/c1ccco1)C(=O)NC(C)C` (stereo not shown) [compound 23] it was at least 600 mg/kg; in that of `CCCN(CCC)C(=O)CCC(NC(=O)/C=C/c1ccco1)C(=O)N(CCC)CCC` (stereo not shown) [compound 30], at least 600 mg/kg.
`CCCCN(CCCC)C(=O)CCC(NC(=O)/C=C/c1ccco1)C(=O)N(CCCC)CCCC` (stereo not shown) [compound 31] displayed an LD50 of at least 600 mg/kg.

The test system of another data set is Wistar strain rats. Put plainly: Anti-ulcer activity, Indomethacin-induced ulcers, intraperitoneal (inhibition percentage). Type of data set: in vivo, Wistar strain rats (male). Particulars: 50 mg/kg intraperitoneal; 1 h before Indomethacin 25 mg/kg p.o.; ulcer lengths after 5 h. The procedure:
On the other hand, Indomethacin alone was orally administered to a control group at the same dose. After 5 hours, the stomach of each rat was removed, and then the sum total of the lengths of the ulcers was measured and compared with that measured for the control group, whereby the inhibition percentage was calculated.
Consider “DL-N^1,N^5-bis(3-acetoxypropyl)-2-[β-(2-furyl)acrylamido]pentane-1,5-diamide [Test Compound 19]”, for which the Inhibition percentage is 40%.
Still for that read-out and setting: in the case of “DL-N^5 -(3-acetoxypropyl)-2-[β-(2-furyl)acrylamido]-N^1 -n-propylpentane-1,5-diamide [Test Compound 20]” it was 52%.

Still in this data set, the particulars now being: Rattus norvegicus, ip; 50 mg/kg intraperitoneal; 1 h before Indomethacin 25 mg/kg p.o.; ulcer lengths after 5 h.
The term inhibition in vivo denotes the drop in the measured response relative to a control, in per cent. For the molecule `CCCN(CCC)C(=O)C(CCC(=O)O)NC(=O)c1ccccc1` (stereo not shown) [Proglumide, reference compound], the inhibition in vivo at 50 mg/kg stood at 0%.
Consider `CCCN(CCC)C(=O)[C@H](CCC(=O)N(C)C)NC(=O)C1CCC(CN)CC1` (stereo partly shown) [compound 9], for which the inhibition in vivo at 50 mg/kg was 59%.
The same measure, in the same setting: in the case of `CCCN(CCC)C(=O)[C@H](CCC(=O)N(C)C)NC(=O)CN1CCN(C)CC1` [compound 10] it was 55%.
For `CCCN(CCC)C(=O)[C@H](CCC(=O)N(C)C)NC(=O)CCN1CCN(C)CC1` [compound 11], the inhibition in vivo at 50 mg/kg is 41%.
Same read-out and setting: in the case of `CCCN(CCC)C(=O)[C@H](CCC(=O)N(C)C)NC(=O)CCCN1CCN(C)CC1` [compound 12] it was 47%.
Still for that read-out and setting: under `CCCN(CCC)C(=O)[C@H](CCC(=O)N(C)C)NC(=O)CCCN1CCN(CC)CC1` [compound 13] stands 55%.
The same measure, in the same setting: in the case of `CCCN(CCC)C(=O)[C@H](CCC(=O)N(C)C)NC(=O)CCCN1CCN(c2ccccc2)CC1` [compound 14] it was 52%; in that of `CCCN(CCC)C(=O)[C@H](CCC(=O)N(C)C)NC(=O)CCCN1CCC(NC(=O)OCc2ccccc2)CC1` [compound 15], 51%.
`CCCN(CCC)C(=O)[C@H](CCC(=O)N(C)C)NC(=O)/C=C/C(=O)c1ccc(OC)c(OC)c1` [compound 16] gave an inhibition in vivo at 50 mg/kg of 59%.
Still for that read-out and setting: under `CCCCNC(=O)CCC(NC(=O)/C=C/c1ccco1)C(=O)NCCCC` (stereo not shown) [compound 17] stands 32.1%; under `CC(C)CNC(=O)CCC(NC(=O)/C=C/c1ccco1)C(=O)NCC(C)C` (stereo not shown) [compound 18], 37.9%; under `CC(=O)OCCCNC(=O)CCC(NC(=O)/C=C/c1ccco1)C(=O)NCCCOC(C)=O` (stereo not shown) [compound 19], 53%.
Regarding `CCCNC(=O)C(CCC(=O)NCCCOC(C)=O)NC(=O)/C=C/c1ccco1` (stereo not shown) [compound 20], the inhibition in vivo at 50 mg/kg was determined as 53.5%.
`CCCNC(=O)C(CCC(N)=O)NC(=O)/C=C/c1ccco1` (stereo not shown) [compound 21] showed an inhibition in vivo at 50 mg/kg of 70.9%.
The same measure, in the same setting: under `O=C(/C=C/c1ccco1)NC(CCC(=O)NCCCl)C(=O)NCCCl` (stereo not shown) [compound 22] stands 56%; under `CC(C)NC(=O)CCC(NC(=O)/C=C/c1ccco1)C(=O)NC(C)C` (stereo not shown) [compound 23], 52%.
